Earlier results on 5 compounds are cited in patent publication US7235541B2, “Neurokinin antagonists for use as medicaments” (Astrazeneca AB, priority 2000, dated 2007).

Read-outs that look alike come from different tables or passages of the source. Peptide text beside a SMILES is read from it.

For data set [1] the following is noted: Elevated plus-maze.
The conditions of data set [2]: Light-dark box.
The conditions of data set [3]: Marmoset human intruder; Walsh et al., Psychopharmacology 1995.
The conditions of data set [4]: Forced swim test (depression model); only at 30 mg/kg bid; Vassout et al, Neuropeptides 1994.
The mark [5] stands for this setting: Teixeira et al., Eur J Pharmacol 1996.
Setting [6] is: Stratton et al., Eur. J. Pharmacol. 1993.
The mark [7] stands for this setting: Walsh et al., Psychopharmacology 1995.

In the case of `CN(Cc1ccccc1)C(=O)[C@H](Cc1ccc2ccccc2c1)NC(=O)[C@@H]1C[C@@H](O)CN1C(=O)c1cn(C)c2ccccc12` [FK888], the Outcome result in data set [1] (setting [5]) is “anxiolytic”.

As to `CC(=O)NC1(c2ccccc2)CCN(CC[C@H](CN(C)C(=O)c2ccccc2)c2ccc(Cl)c(Cl)c2)CC1` [SR48968], the Outcome entry in data set [1] (setting [5]), in data set [2] (setting [6]), in data set [2] (setting [7]) and in data set [3] was “anxiolytic” each time.

Regarding `Cc1cc(C)cc(C(=O)N2CC[C@H](NCc3ccnc4ccccc34)C[C@H]2Cc2ccccc2)c1` [CGP 49823], the Outcome entry in data set [1] (Vassout et al, Neuropeptides 1994) was “inactive”; the Outcome result (Social interaction test, Vassout et al, Neuropeptides 1994) was “anxiolytic”; the Outcome result (Social interaction, File, Pharm Bio B 1997) was “anxiolytic”; the Outcome entry in data set [4] is “antidepressant”.

Regarding `C[C@H](NC(=O)CNC(=O)C1CCCCC1)C(=O)N[C@H](Cc1c[nH]c2ccccc12)C(=O)N[C@@H](Cc1ccccc1)C(=O)N(C)C` [GR100679] (HELM PEPTIDE1{[O=C(C1CCCCC1)[*:2]].G.A.[dW].F.[CN(C)[*:1]]}$$$$V2.0), the Outcome result in data set [2] (setting [6]) is on record as “anxiolytic”.

Turning to `COC1(C[S@@+]([O-])c2ccccc2)CCN(CCc2c[nH]c3ccc(F)cc23)CC1` [GR159897], the Outcome entry in data set [2] (setting [7]) and in data set [3] was “anxiolytic” in each case.
